Reference: patent US9296778B2, “3′,5′-cyclic phosphate prodrugs for HCV infection” (Idenix Pharmaceuticals, Inc., priority 2012, dated 2016)

Experiments:
fresh human hepatocytes = assay: Release of active metabolite in fresh human hepatocytes; format: in vitro ADME; details: 10 μM compound
In short: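 Overnight-acclimatized hepatocytes (0.8 million cells/well human, 0.5 million mouse) incubated at 37 °C with 10 μM test compound (0.1% DMSO). Sampled at 6, 24, 48 h (human) or 1, 4, 8, 12, 24 h (mouse); cells washed, extracted in cold 70% methanol, intracellular content quantified by LC-MS/MS with internal standard.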

[1] = Liver pharmacokinetics following a single oral dose in CD-1 mice; format: in vivo; details: single oral dose 25 mg/kg in PEG 200, CD-1 male mice; given at 1 μmol/kg
In short: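 Male CD-1 mice given 25 mg/kg test compound orally in PEG 200; liver snap-frozen in situ at 4, 12 and 24 h (3 per time). Liver 2′-MeGTP measured after TCA homogenization and anion-exchange SPE by LC-MS/MS, calibration 50–50000 pmol/g liver.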

In the case of CCOc1nc(N)nc2c1ncn2[C@@H]1O[C@@H]2COP(=O)(OCCCC(=O)OC(C)C)O[C@H]2[C@@]1(C)F (single isomer, unassigned) [Compound 20 Diastereomer 1], the “FHH TP Cmax” value (fresh human hepatocytes; fresh human hepatocytes) is reported as 88 pmol/mill cells, the “FHH TP AUC” value (fresh human hepatocytes; fresh human hepatocytes, 6, 24 and 48 hours) is reported as 2393 pmol · hr/mill cells and the “Ms Liver 2′-MeGTP AUC” value [1] is reported as 410 pmol · hr/g at 1 μmol/kg.
